Reference: patent US20240376099A1, “COMPOUNDS AND COMPOSITIONS AS INHIBITORS OF ENDOSOMAL TOLL-LIKE RECEPTORS” (Novartis AG, priority 2016, published 2024)

Biological target: T1, TLR7 (Homo sapiens, UniProt Q9NYK1)
T1 construct: Fresh blood was collected from normal human donors; endogenous in cells; host or cells: human PBMCs from fresh donor blood
T1 sequence (Q9NYK1 27-1049): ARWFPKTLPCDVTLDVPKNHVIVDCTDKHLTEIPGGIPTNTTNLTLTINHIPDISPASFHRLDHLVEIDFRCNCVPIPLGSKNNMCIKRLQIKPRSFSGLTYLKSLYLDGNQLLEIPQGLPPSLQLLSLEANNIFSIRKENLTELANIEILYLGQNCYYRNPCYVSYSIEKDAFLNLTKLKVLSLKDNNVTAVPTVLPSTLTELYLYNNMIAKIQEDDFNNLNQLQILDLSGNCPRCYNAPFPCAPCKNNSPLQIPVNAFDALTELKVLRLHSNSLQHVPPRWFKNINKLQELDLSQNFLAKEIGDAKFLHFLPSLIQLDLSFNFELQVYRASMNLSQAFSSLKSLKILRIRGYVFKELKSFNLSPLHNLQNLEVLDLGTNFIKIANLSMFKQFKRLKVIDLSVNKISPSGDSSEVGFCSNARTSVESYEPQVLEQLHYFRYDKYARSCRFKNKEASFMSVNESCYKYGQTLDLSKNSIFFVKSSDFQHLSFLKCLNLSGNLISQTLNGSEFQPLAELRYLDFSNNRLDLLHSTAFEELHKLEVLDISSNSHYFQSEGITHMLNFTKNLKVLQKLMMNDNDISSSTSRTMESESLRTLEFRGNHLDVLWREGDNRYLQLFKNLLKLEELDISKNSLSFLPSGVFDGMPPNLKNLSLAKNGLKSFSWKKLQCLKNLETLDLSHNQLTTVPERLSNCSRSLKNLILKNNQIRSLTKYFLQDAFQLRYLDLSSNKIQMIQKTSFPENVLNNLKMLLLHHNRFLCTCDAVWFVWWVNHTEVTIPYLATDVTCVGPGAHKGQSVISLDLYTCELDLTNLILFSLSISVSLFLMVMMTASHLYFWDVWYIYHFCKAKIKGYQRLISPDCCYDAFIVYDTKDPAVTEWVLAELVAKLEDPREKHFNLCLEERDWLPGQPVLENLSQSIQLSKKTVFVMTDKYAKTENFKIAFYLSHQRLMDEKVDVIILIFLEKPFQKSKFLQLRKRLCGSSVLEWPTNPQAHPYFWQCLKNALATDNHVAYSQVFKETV
Experiment: huPBMC TLR7 Antagonist IFNα Assay
Assay type: cell-based
Details: human PBMCs stimulated with ssRNA40 10 μg/mL (DOTAP), 14-16 hrs; IFNα2b AlphaLISA read-out
Summary of the method: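 Human PBMCs from fresh donor blood (150,000 cells/well) stimulated 14–16 h at 37 °C with DOTAP-complexed ssRNA40 (final 1 μg/ml for TLR8, 10 μg/mL for TLR7) or ODN2216 (final 0.3 μM, TLR9), 0.25% DMSO, ten-point 1/3 compound dilutions. Supernatant IL-6 read by HTRF (TLR8); IFNα by IFNα2b AlphaLISA (TLR7/TLR9).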

Row | IC50 [nM] | SMILES
1 | 318 | Cn1ncc2c(N3CCc4c(cnn4CC45CCC(N)(CC4)CC5)C3)nc(N)nc21 [compound 11, 4-(1-((4-aminobicyclo[2.2.2]octan-1-yl)methyl)-6,7-dihydro-1H-pyrazolo[4,3-c]pyridin-5(4H)-yl)-1-methyl-1H-pyrazolo[3,4-d]pyrimidin-6-amine]
2 | 841 | Cn1ncc2c(N3CCc4nn(CC56CCC(N)(CC5)CC6)cc4C3)nc(N)nc21 [compound 12, 4-(2-((4-aminobicyclo[2.2.2]octan-1-yl)methyl)-6,7-dihydro-2H-pyrazolo[4,3-c]pyridin-5(4H)-yl)-1-methyl-1H-pyrazolo[3,4-d]pyrimidin-6-amine]
3 | 42 | Cc1nn(CC23CCC(N)(CC2)CC3)c2c1CN(c1nc(N)nc3c1cnn3C)CC2 [compound 13, 4-(1-((4-aminobicyclo[2.2.2]octan-1-yl)methyl)-3-methyl-6,7-dihydro-1H-pyrazolo[4,3-c]pyridin-5(4H)-yl)-1-methyl-1H-pyrazolo[3,4-d]pyrimidin-6-amine]
4 | 241 | Cc1c2c(nn1CC13CCC(N)(CC1)CC3)CCN(c1nc(N)nc3c1cnn3C)C2 [compound 14, 4-(2-((4-aminobicyclo[2.2.2]octan-1-yl)methyl)-3-methyl-6,7-dihydro-2H-pyrazolo[4,3-c]pyridin-5(4H)-yl)-1-methyl-1H-pyrazolo[3,4-d]pyrimidin-6-amine]
5 | 288 | Cc1nn(CC23CCC(N)(CC2)CC3)c2c1CN(c1nc(Cl)nc3cnn(C)c13)CC2 [compound 15, 4-((5-(5-chloro-1-methyl-1H-pyrazolo[4,3-d]pyrimidin-7-yl)-3-mehtyl-4,5,6,7-tetrahydro-1H-pyrazolo[4,3-c]pyridin-1-yl)methyl)bicyclo[2.2.2]octan-1-amine]
6 | 25 | Cc1nc(N2CCc3c(c(C)nn3CC34CCC(N5CCCC5)(CC3)CC4)C2)c2cnn(C)c2n1 [compound 16, 1,6-dimethyl-4-(3-methyl-1-((4-(pyrrolidin-1-yl)bicyclo[2.2.2]octan-1-yl)methyl)-6,7-dihydro-1H-pyrazolo[4,3-c]pyridin-5(4H)-yl)-1H-pyrazolo[3,4-d]pyrimidine]
7 | 258 | Cc1nc(N2CCc3c(c(C)nn3CC34CCC(N5CCCC5)(CC3)CC4)C2)c2c(n1)c(C)nn2C [compound 17, 1,3,5-trimethyl-7-(3-methyl-1-((4-(pyrrolidin-1-yl)bicyclo[2.2.2]octan-1-yl)methyl)-6,7-dihydro-1H-pyrazolo[4,3-c]pyridin-5(4H)-yl)-1H-pyrazolo[4,3-d]pyrimidine]
8 | 245 | COCCNC12CCC(Cn3nc(C)c4c3CCN(c3nc(C)nc5c(C)nn(C)c35)C4)(CC1)CC2 [compound 18, N-(2-methoxyethyl)-4-((3-methyl-5-(1,3,5-trimethyl-1H-pyrazolo[4,3-d]pyrimidin-7-yl)-4,5,6,7-tetrahydro-1H-pyrazolo[4,3-c]pyridin-1-yl)methyl)bicyclo[2.2.2]octan-1-amine]
9 | 55 | Cc1nc(N2CCc3c(c(C)nn3CC34CCC(N5CCOCC5)(CC3)CC4)C2)c2cnn(C)c2n1 [compound 19, 4-(4-((5-(1,6-dimethyl-1H-pyrazolo[3,4-d]pyrimidin-4-yl)-3-methyl-4,5,6,7-tetrahydro-1H-pyrazolo[4,3-c]pyridin-1-yl)methyl)bicyclo[2.2.2]octan-1-yl)morpholine]
10 | 25 | CCNCC(=O)NC12CCC(Cn3nc(C)c4c3CCN(c3nc(C)nc5[nH]ncc35)C4)(CC1)CC2 [compound 20, 2-(ethylamino)-N-(4-((3-methyl-5-(6-methyl-1H-pyrazolo[3,4-d]pyrimidin-4-yl)-4,5,6,7-tetrahydro-1H-pyrazolo[4,3-c]pyridin-1-yl)methyl)bicyclo[2.2.2]octan-1-yl)acetamide]
11 | 24 | Cc1nc(N2CCc3c(c(C)nn3CC34CCC(N5CCOCC5)(CC3)CC4)C2)c2cn[nH]c2n1 [compound 21, 4-(4-((3-methyl-5-(6-methyl-1H-pyrazolo[3,4-d]pyrimidin-4-yl)-4,5,6,7-tetrahydro-1H-pyrazolo[4,3-c]pyridin-1-yl)methyl)bicyclo[2.2.2]octan-1-yl)morpholine]
12 | 33 | CCNCC(=O)NC12CCC(Cn3nc(C)c4c3CCN(c3nc(C)nc5c(C)nn(C)c35)C4)(CC1)CC2 [compound 22, 2-(ethylamino)-N-(4-((3-methyl-5-(1,3,5-trimethyl-1H-pyrazolo[4,3-c]pyrimidin-7-yl)-4,5,6,7-tetrahydro-1H-pyrazolo[4,3-c]pyridin-1-yl)methyl)bicyclo[2.2.2]octan-1-yl)acetamide]
13 | 666 | Cc1nc(N2CCc3c(c(C)nn3CC34CCC(NCC5COC5)(CC3)CC4)C2)c2c(n1)c(C)nn2C [compound 23, 4-((3-methyl-5-(1,3,5-trimethyl-1H-pyrazolo[4,3-c]pyrimidin-7-yl)-4,5,6,7-tetrahydro-1H-pyrazolo[4,3-c]pyridin-1-yl)methyl)-N-(oxetan-3-ylmethyl)bicyclo[2.2.2]octan-1-amine]
14 | 201 | Cc1nc(N2CCc3c(c(C)nn3CC34CCC(NC(=O)CCN(C)C)(CC3)CC4)C2)c2c(n1)c(C)nn2C [compound 24, 3-(dimethyalmino)-N-(4-((3-methyl-5-(1,3,5-trimethyl-1H-pyrazolo[4,3-d]pyrimidin-7-yl)-4,5,6,7-tetrahydro-1H-pyrazolo[4,3-c]pyridin-1-yl)methyl)bicyclo[2.2.2]octan-1-yl)propanamide]
15 | 565 | Cc1nc(N2CCc3c(c(C)nn3CC34CCC(N5CCOCC5)(CC3)CC4)C2)c2c(n1)c(C)nn2C [compound 25, 4-(4-((3-methyl-5-(1,3,5-trimethyl-1H-pyrazolo[4,3-d]pyrimidin-7-yl)-4,5,6,7-tetrahydro-1H-pyrazolo[4,3-c]pyridin-1-yl)methyl)bicyclo[2.2.2]octan-1-yl)morpholine]
16 | 15 | Cc1nc(N2CCc3c(c(C)nn3CC34CCC(NC5CCC5)(CC3)CC4)C2)c2c(n1)c(C)nn2C [compound 27, N-cyclobutyl-4-((3-methyl-5-(1,3,5-trimethyl-1H-pyrazolo[4,3-d]pyrimidin-7-yl)-4,5,6,7-tetrahydro-1H-pyrazolo[4,3-c]pyridin-1-yl)methyl)bicyclo[2.2.2]octan-1-amine]
17 | 840 | Cc1nc(N2CCc3c(c(C)nn3CC34CCC(N(C5CCC5)C5CCC5)(CC3)CC4)C2)c2c(n1)c(C)nn2C [compound 28, N,N-dicyclobutyl-4-((3-methyl-5-(1,3,5-trimethyl-1H-pyrazolo[4,3-d]pyrimidin-7-yl)-4,5,6,7-tetrahydro-1H-pyrazolo[4,3-c]pyridin-1-yl)methyl)bicyclo[2.2.2]octan-1-amine]
18 | 73 | Cc1nc(N2CCc3c(c(C)nn3CC34CCC(N5CCCCC5)(CC3)CC4)C2)c2cn[nH]c2n1 [compound 29, 6-methyl-4-(3-methyl-1-((4-(piperidin-1-yl)bicyclo[2.2.2]octan-1-yl)methyl)-6,7-dihydro-1H-pyrazolo[4,3-c]pyridin-5(4H)-yl)-1H-pyrazolo[3,4-d]pyrimidine]
19 | 10 | Cc1nc(N2CCc3c(c(C)nn3CC34CCC(N5CCCC5)(CC3)CC4)C2)c2cn[nH]c2n1 [compound 30, 6-methyl-4-(3-methyl-1-((4-(pyrrolidin-1-yl)bicyclo[2.2.2]octan-1-yl)methyl)-6,7-dihydro-1H-pyrazolo[4,3-c]pyridin-5(4H)-yl)-1H-pyrazolo[3,4-d]pyrimidine]
